Test results from ChEMBL document CHEMBL1130830, “Broad spectrum matrix metalloproteinase inhibitors: an examination of succinamide hydroxamate inhibitors with P1 C alpha gem-disubstitution” (Bioorg Med Chem Lett, 1998).

Experiments:
Stromelysin-1 = Stromelysin-1 (Homo sapiens, UniProt P08254); assay: Inhibition of Matrix metalloprotease-3 (MMP-3)
[1] = target: 72 kDa type IV collagenase (Homo sapiens, UniProt P08253); assay: Inhibition of Matrix metalloprotease-2 (MMP-2)
Interstitial collagenase = target: T1, Interstitial collagenase (Homo sapiens, UniProt P03956); assay: Inhibition of matrix metalloprotease-1 (MMP-1)
T1 sequence (P03956 whole entry): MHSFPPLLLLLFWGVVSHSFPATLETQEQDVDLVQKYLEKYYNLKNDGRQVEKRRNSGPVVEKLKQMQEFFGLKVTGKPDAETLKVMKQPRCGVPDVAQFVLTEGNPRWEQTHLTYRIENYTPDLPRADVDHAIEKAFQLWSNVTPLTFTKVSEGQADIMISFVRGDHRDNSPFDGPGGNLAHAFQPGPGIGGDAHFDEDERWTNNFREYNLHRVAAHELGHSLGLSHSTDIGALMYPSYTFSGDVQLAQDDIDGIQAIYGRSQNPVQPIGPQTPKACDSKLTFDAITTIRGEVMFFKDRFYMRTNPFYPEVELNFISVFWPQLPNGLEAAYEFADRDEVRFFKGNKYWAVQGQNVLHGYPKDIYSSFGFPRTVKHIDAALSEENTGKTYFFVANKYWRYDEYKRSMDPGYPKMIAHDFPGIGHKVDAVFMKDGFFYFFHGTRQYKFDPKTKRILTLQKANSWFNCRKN

Chain of 72 kDa type IV collagenase (P08253 whole entry): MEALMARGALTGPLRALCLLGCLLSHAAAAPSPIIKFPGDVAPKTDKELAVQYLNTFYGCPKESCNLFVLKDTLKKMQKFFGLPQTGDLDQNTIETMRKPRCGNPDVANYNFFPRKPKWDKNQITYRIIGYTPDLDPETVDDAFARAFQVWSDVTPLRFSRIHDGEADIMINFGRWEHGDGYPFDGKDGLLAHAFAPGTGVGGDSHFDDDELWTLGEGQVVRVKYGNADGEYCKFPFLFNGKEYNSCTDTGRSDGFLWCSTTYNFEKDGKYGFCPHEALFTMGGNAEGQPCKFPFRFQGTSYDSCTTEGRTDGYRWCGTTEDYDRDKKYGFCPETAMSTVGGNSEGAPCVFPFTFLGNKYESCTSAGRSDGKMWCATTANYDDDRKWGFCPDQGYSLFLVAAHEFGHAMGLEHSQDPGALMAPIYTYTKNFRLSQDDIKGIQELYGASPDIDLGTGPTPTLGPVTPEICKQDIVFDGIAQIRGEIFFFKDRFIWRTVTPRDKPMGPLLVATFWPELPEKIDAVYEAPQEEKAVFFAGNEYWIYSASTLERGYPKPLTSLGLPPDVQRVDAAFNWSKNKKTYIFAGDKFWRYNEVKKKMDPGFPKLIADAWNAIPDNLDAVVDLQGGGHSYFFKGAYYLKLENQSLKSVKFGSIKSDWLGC
Chain of Stromelysin-1 (P08254 whole entry): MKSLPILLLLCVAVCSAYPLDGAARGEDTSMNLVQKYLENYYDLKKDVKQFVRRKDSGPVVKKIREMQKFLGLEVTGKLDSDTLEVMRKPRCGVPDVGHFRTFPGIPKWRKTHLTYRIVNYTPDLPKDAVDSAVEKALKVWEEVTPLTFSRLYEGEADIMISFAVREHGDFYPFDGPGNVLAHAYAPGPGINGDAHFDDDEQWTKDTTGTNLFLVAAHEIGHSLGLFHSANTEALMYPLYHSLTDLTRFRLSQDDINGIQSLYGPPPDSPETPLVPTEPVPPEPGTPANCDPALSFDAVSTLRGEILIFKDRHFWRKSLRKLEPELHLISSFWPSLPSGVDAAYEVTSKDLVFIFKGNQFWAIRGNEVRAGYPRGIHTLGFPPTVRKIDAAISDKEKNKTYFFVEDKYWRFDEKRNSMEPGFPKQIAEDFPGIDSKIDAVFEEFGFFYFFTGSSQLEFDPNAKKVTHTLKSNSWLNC

Compound	IC50 (Stromelysin-1)	IC50 [1]	IC50 (Interstitial collagenase)
C=CCC(CC=C)(C(=O)NO)[C@@H](CC(C)C)C(=O)N[C@@H](Cc1ccccc1)C(=O)NC	2600 nM	110 nM	550 nM
CNC(=O)[C@H](Cc1ccccc1)NC(=O)[C@H](CC(C)C)C1(C(=O)NO)CCCC1	170 nM	50 nM	37 nM
C=CC[C@](C)(C(=O)NO)[C@@H](CC(C)C)C(=O)N[C@@H](CC1CCCCC1)C(=O)NCCc1ccccc1	160 nM	64 nM	110 nM
C=CC[C@](C)(C(=O)NO)[C@@H](CC(C)C)C(=O)N[C@@H](CC1CCCCC1)C(=O)NCCc1ccc(S(N)(=O)=O)cc1	15 nM	23 nM	6.9 nM
C=CC[C@@](C)(C(=O)NO)[C@@H](CC(C)C)C(=O)N[C@@H](Cc1ccccc1)C(=O)NC	420 nM	66 nM	52 nM
C=CC[C@](C)(C(=O)NO)[C@@H](CC(C)C)C(=O)N[C@H](C(=O)Nc1ccccc1)C(C)(C)C	95 nM	6.2 nM	50 nM
CNC(=O)[C@H](Cc1ccccc1)NC(=O)[C@H](CC(C)C)[C@H](C)C(=O)NO	50 nM	1.3 nM	1.3 nM
CNC(=O)[C@H](Cc1ccccc1)NC(=O)[C@H](CC(C)C)C(C)(C)C(=O)NO	170 nM	2.3 nM	9.4 nM
C=CC[C@](C)(C(=O)NO)[C@@H](CC(C)C)C(=O)N[C@H](C(=O)NC)C(C)(C)C	480 nM	2.5 nM	2.7 nM
C=CC[C@](C)(C(=O)NO)[C@@H](CC(C)C)C(=O)N[C@@H](Cc1ccccc1)C(=O)Nc1ccccc1	91 nM	52 nM	120 nM
C=CC[C@](C)(C(=O)NO)[C@@H](CC(C)C)C(=O)N[C@@H](Cc1ccccc1)C(=O)NC	25 nM	4.2 nM	3.1 nM
C=CC[C@@H](C(=O)NO)[C@@H](CC(C)C)C(=O)N[C@@H](Cc1ccccc1)C(=O)NC	59 nM	35 nM	35 nM
C=CCC(C(=O)NO)C(CC(C)C)C(=O)N[C@@H](Cc1ccccc1)C(=O)NC (single isomer, unassigned)	12 nM	1.8 nM	2.2 nM
